The text below walks through data of US11319298B2 (Merck Sharp & Dohme Corp., priority 2016, dated 2022).

Each structure is given as a SMILES string.

In this assay the target is T1, human M4 muscarinic acetylcholine receptor (Homo sapiens, UniProt P08173).
T1 construct: expressed in transfected cells; host or cells: CHO-K1
T1 sequence (P08173 1-479): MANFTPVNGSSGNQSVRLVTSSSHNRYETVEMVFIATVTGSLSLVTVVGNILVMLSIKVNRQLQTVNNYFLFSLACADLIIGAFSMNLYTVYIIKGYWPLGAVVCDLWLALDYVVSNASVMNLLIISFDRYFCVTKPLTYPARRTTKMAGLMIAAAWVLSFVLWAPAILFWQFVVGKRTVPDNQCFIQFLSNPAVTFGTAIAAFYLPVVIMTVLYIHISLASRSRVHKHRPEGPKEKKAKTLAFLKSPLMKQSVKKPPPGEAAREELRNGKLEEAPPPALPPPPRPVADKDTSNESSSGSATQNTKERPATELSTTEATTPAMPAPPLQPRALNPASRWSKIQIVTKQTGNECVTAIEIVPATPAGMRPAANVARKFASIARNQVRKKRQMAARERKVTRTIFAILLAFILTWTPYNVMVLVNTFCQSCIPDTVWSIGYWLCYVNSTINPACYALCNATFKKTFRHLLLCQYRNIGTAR
The experiment in a line: human FLIPR-based M4 PAM assay, CHO-K1 cells stably transfected with human M4 receptor and chimeric G-protein Gαqi5. The format is cell-based. The settings on record: inflection point (IP) of dose response curve; acetylcholine added at 20% of maximum response; CHO-K1 human M4/Gαqi5, FLIPR Tetra. The protocol:
In a typical experiment the M4 muscarinic acetylcholine receptor modulating activity of the compounds of the present invention was determined in accordance with the following experimental method. CHO-K1 cells stably transfected with human M4 receptor and chimeric G-protein Gαqi5 (Coward P, et al., Analytical Biochemistry, 270:242-248 (1999)) are thawed from liquid N2 storage, resuspended in growth medium, plated in black, clear bottom 384 well plates, and incubated 16-20 hours at 37° C., 5% CO2. On the day of assay, growth medium is removed, the cells are washed 2 times with wash buffer, and cells are incubated in dye loading buffer at 37° C., 5% CO2 for ˜1 hour. Following dye loading the cell plates are placed in a FLIPR Tetra instrument and while monitoring dye fluorescence (excitation […]), 10 uL of test substance at increasing concentrations is added, and fluorescence values are recorded for 4 min. Next, 10 uL of acetylcholine is added (final concentration calculated so as to achieve 20% of the maximum acetycholine response), and the fluorescence reading is continued for 3.5 min. In some cases, a third addition of acetylcholine (final concentration calculated to achieve 70% of the maximal acetylcholine response) is performed. The resulting dose response curves are fit to a 4 parameter logistic equation and the final result is determined as the inflection point (IP) of the curve
CHO-K1 cells stably transfected with human M4 receptor and chimeric G-protein Gαqi5 are thawed from liquid N2 storage, resuspended in growth medium, plated in black, clear bottom 384 well plates, and incubated 16-20 hours at 37° C., 5% CO2.
On the day of assay, growth medium is removed, the cells are washed 2 times with wash buffer, and cells are incubated in dye loading buffer at 37° C., 5% CO2 for ˜1 h. Following dye loading the cell plates are placed in a FLIPR Tetra instrument and while monitoring dye fluorescence ([…]), 10 uL of test substance at increasing concentrations is added, and fluorescence values are recorded for 4 min. Next, 10 uL of acetylcholine is added (final concentration calculated so as to achieve 20% of the maximum acetycholine response), and the fluorescence reading is continued for 3.5 min. In some cases, a third addition of acetylcholine (final concentration calculated to achieve 70% of the maximal acetylcholine response) is performed.
With `Cc1nc(Cl)c(C)c(N2CCC(Oc3ccc4c(cnn4C)c3)CC2)n1` [Example 56, 5-((1-(6-chloro-2,5-dimethypyrimidin-4-yl)piperidin-4-yl)oxy)-1-methyl-1H-indazole], the EC50 was 60 nM.
The figure for `Cc1c(Cl)nc(CO)nc1N1CCC(Oc2ccc3c(c2)C(=O)N(C)C3)CC1` [Example 33, 6-((1-(6-chloro-2-(hydroxymethyl)-5-methypyrimidin-4-yl)piperidin-4-yl)oxy)-2-methylisoindolin-1-one] is 210 nM; for `Cc1cc(C(=O)NCc2ccncc2)nnc1N1CC[C@@H](Oc2cccc(C#N)c2)[C@@H](F)C1` [Example 115, 6-[(3S,4R)-4-(3-cyanophenoxy)-3-fluoropiperidin-1-yl]-5-methyl-N-(pyridin-4-ylmethyl)pyridazine-3-carboxamide] it is 61 nM.
The compound `COc1ccc(OC2CCN(c3nnc(C(=O)NCCn4ccnn4)cc3C)CC2)cn1` [Example 142, 6-{4-[(6-methoxypyridin-3-yl)oxy]piperidin-1-yl}-5-methyl-N-[2-(1H-1,2,3-triazol-1-yl)ethyl]pyridazine-3-carboxamide] displayed an EC50 of 185 nM.
For the compound `COc1ccc(OC2CCN(c3ncnc(N(C)CCc4ccccn4)c3C)CC2)cn1` [Example 240, 6-(4-((6-methoxypyridin-3-yl)oxy)piperidin-1-yl)-N,5-dimethyl-N-(2-(pyridin-2-yl)ethyl)pyrimidin-4-amine], the response was half-maximal at 413 nM (EC50).
Under `COc1ccc(OC2CCN(c3nc(CO)nc(Cl)c3C)CC2)cc1` [Example 47, (4-chloro-6-(4-(4-methoxyphenoxy)piperidin-1-yl)-5-methypyrimidin-2-yl)methanol] stands 25 nM.
Regarding `COc1ccc(OC2CCN(c3nnc(C(=O)N[C@H]4CCc5ncccc5C4)cc3C)CC2)cn1` [Example 141B, (S)-6-(4-((6-methoxypyridin-3-yl)oxy)piperidin-1-yl)-5-methyl-N-(5,6,7,8-tetrahydroquinolin-6-yl)pyridazine-3-carboxamide], the EC50 came out at 173 nM. Against the preceding compound, the EC50 is about 6.9-fold higher.
Under `Cc1ncc(C)c(N2CCC(Oc3cccc(C#N)c3)CC2)n1` [Example 76, 3-((1-(2,5-dimethylpyrimidin-4-yl)piperidin-4-yl)oxy)benzonitrile] stands 172 nM; under `Cc1c(Cl)nc(CO)nc1N1CCC(Oc2ccc3nn(C)cc3c2)CC1` [Example 63], 99 nM; under `COc1ccc(OC2CCN(c3nnc(C(=O)N4CCc5snc(-c6cccnc6)c5C4)cc3C)CC2)cn1` [Example 203, 5-[(6-{4-[(6-methoxypyridin-3-yl)oxy]piperidin-1-yl}-5-methylpyridazin-3-yl)carbonyl]-3-pyridin-3-yl-4,5,6,7-tetrahydroisothiazolo[4,5-c]pyridine], 504 nM.
The figure for `Cc1c(Cl)ncnc1N1CCC(Oc2cccc(C#N)c2)CC1` [Example 50, 3-((1-(6-chloro-5-methypyrimidin-4-yl)piperidin-4-yl)oxy)benzonitrile] is 49 nM; for `Cc1nc(Cl)c(C)c(N2CCC(Oc3cccc(C#N)c3)CC2)n1` [Example 55, 3-((1-(6-chloro-2,5-dimethylpyrimidin-4-yl)piperidin-4-yl)oxy)benzonitrile] it is 59 nM; for `COc1ccc(OC2CCN(c3nnc(C(N)=O)cc3C)CC2)cn1` [Example 127, 6-{4-[(6-methoxypyridin-3-yl)oxy]piperidin-1-yl}-5-methylpyridazine-3-carboxamide] it is 114 nM.
`Cc1c(Cl)nc(CO)nc1N1CCC(Oc2ccc3c(c2)NC(=O)CC3)CC1` [Example 30, 7-((1-(6-chloro-2-(hydroxymethyl)-5-methylpyrimidin-4-yl)piperidin-4-yl)oxy)-3,4-dihydroquinolin-2(1H)-one]: the EC50 turned out to be 140 nM.
The figure for `Cc1c(Cl)nc(CO)nc1N1CCC(Oc2ccc3c(c2)NCCC3)CC1` [Example 35, (4-chloro-5-methyl-6-(4-((1,2,3,4-tetrahydroquinolin-7-yl)oxy)piperidin-1-yl)pyrimidin-2-yl)methanol] is 220 nM; for `COc1ccc(OC2CCN(c3nnc(C(=O)NCc4cnn[nH]4)cc3C)CC2)cn1` [Example 118, 6-{4-[(6-methoxypyridin-3-yl)oxy]piperidin-1-yl}-5-methyl-N-(1H-1,2,3-triazol-5-ylmethyl)pyridazine-3-carboxamide] it is 86 nM.
Under `COc1ccc(OC2CCN(c3nnc(C(=O)NCc4ccc(C#N)cc4)cc3C)CC2)cn1` [Example 171, N-(4-cyanobenzyl)-6-{4-[(6-methoxypyridin-3-yl)oxy]piperidin-1-yl}-5-methylpyridazine-3-carboxamide] stands 471 nM; under `COC(=O)c1cc(C)c(N2CCC(Oc3ccc(OC)nc3)CC2)nc1F` [Example 102, Methyl 2-fluoro-6-(4-((6-methoxypyridin-3-yl)oxy)piperidin-1-yl)-5-methylnicotinate], 378 nM.
Under `COc1ccc(OC2CCN(c3ncnc(Cl)c3C)CC2)cc1` [Example 57, 4-chloro-6-(4-(4-methoxyphenoxy)piperidin-1-yl)-5-methypyrimidine] stands 61 nM; under `CCCc1ncnc(N2CCC(Oc3ccc(OC)nc3)CC2)c1C` [Example 248, 4-(4-((6-methoxypyridin-3-yl)oxy)piperidin-1-yl)-5-methyl-6-propylpyrimidine], 1550 nM.
`COc1ccc(OC2CCN(c3nnc(C(=O)N[C@@H]4CCc5ccncc5C4)cc3C)CC2)cn1` (single isomer, unassigned) [Example 107A] came in with an EC50 of 182 nM. This EC50 is about 8.5-fold lower than that of the compound before.
The figure for `Cc1c(Cl)nc(CO)nc1N1CC[C@@H](Oc2ccc3c(cnn3C)c2)[C@@H](F)C1` (relative stereo) [Example 25, (4-chloro-6-((cis)-3-fluoro-4-((1-methyl-1H-indazol-5-yl)oxy)piperidin-1-yl)-5-methylpyrimidin-2-yl)methanol] is 78 nM; for `COc1ccc(OC2CCN(c3nnc(C(=O)NC4CCc5cccnc5C4)cc3C)CC2)cn1` (centres unmarked) [Example 136, 6-{4-[(6-methoxypyridin-3-yl)oxy]piperidin-1-yl}-5-methyl-N-(5,6,7,8-tetrahydroquinolin-7-yl)pyridazine-3-carboxamide] it is 173 nM; for `COc1ccc(OC2CCN(c3nc(C(=O)NCc4ccncc4)nc(Cl)c3C)CC2)cn1` [Example 207, 4-chloro-6-(4-((6-methoxypyridin-3-yl)oxy)piperidin-1-yl)-5-methyl-N-(pyridin-4-ylmethyl)pyrimidine-2-carboxamide] it is 224 nM.
Under `COc1ccc(OC2CCN(c3nnc(C(=O)NCc4ccc(F)cc4Cl)cc3C)CC2)cn1` [Example 183, N-(2-chloro-4-fluorobenzyl)-6-{4-[(6-methoxypyridin-3-yl)oxy]piperidin-1-yl}-5-methylpyridazine-3-carboxamide] stands 915 nM.
The figure for `COc1ccc(O[C@@H]2CCN(c3nc(C)ncc3C)C[C@@H]2F)cn1` [Example 84, 4-((3S,4R)-3-fluoro-4-((6-methoxypyridin-3-yl)oxy)piperidin-1-yl)-2,5-dimethylpyrimidine] is 574 nM; for `Cc1cc(C(=O)NCc2ccncc2)nnc1N1CCC(Oc2cnn(C)c2)CC1` [Example 22, 5-methyl-6-(4-((1-methyl-1H-pyrazol-4-yl)oxy)piperidin-1-yl)-N-(pyridin-4-ylmethyl)pyridazine-3-carboxamide] it is 74 nM; for `Cc1cc(C(=O)N[C@@H]2CCc3cccnc3C2)nnc1N1CCC(Oc2cccc(C#N)c2)CC1` [Example 164B, (R)-6-[4-(3-cyanophenoxy)piperidin-1-yl]-5-methyl-N-(5,6,7,8-tetrahydroquinolin-7-yl)pyridazine-3-carboxamide] it is 338 nM.
Consider `Cc1c(-c2ccc3c(=O)nc[nH]c3c2)ncnc1N1CCC(Oc2cccc(C#N)c2)CC1` [Example 253, 3-((1-(5-methyl-6-(4-oxo-1,4-dihydroquinazolin-7-yl)pyrimidin-4-yl)piperidin-4-yl)oxy)benzonitrile], for which the EC50 came to 1740 nM. Against the preceding compound, the EC50 is about 5.1-fold higher.

What is called EC50 is the midpoint of the concentration-response curve. Low readings indicate a more potent agent, high ones a less potent agent.
